Source: patent US20090099207A1, “Cyclic sulfones useful as BACE inhibitors” (priority 2006, published 2009)

Legend:
[1] = Test 4: Inhibition of cellular release of amyloid peptide 1-40; format: cell-based, Chinese hamster; details: Cricetulus griseus; CHO cells transfected with APP gene; 24 hours with test compound; amyloid peptide 1-40 in supernatant by sandwich ELISA
Text: Test 4: Inhibition of Cellular Release of Amyloid Peptide 1-40

Row | melting point [°C] | IC50 [1] [µM] | SMILES
1 | 173 to 175 |  | COc1ccc(C[C@@H]2CS(=O)(=O)C[C@H](NCc3cccc(C(C)C)c3)[C@H]2O)cc1Br.Cl
2 | 239 to 242 |  | CC(C)c1cccc(CN[C@H]2CS(=O)(=O)C[C@@H](Cc3ccccc3)[C@@H]2O)c1.Cl (hydrate or solvate)
3 |  | 4.7 | CO[C@@H](C)COCc1cccc(C[C@@H]2CS(=O)(=O)C[C@H](NCc3cccc(C(C)C)c3)[C@H]2O)c1 [Example 26, (3R,4S,5S)-3-(3-Isopropyl-benzylamino)-5-[3-((S)-2-methoxy-propoxy-methyl)-benzyl]-1,1-dioxo-hexahydro-1lambda*6*-thiopyran-4-ol]
4 | 136 to 139 |  | CC(C)c1cccc(CN[C@H]2CS(=O)(=O)C[C@@H](Cc3ccc(Nc4ccncn4)cc3)[C@@H]2O)c1 [Example 44, (3R,4S,5S)-3-(3-Isopropyl-benzylamino)-1,1-dioxo-5-[4-(pyrimidin-4-ylamino)-benzyl]-hexahydro-1lambda*6*-thiopyran-4-ol]
